Experimental data reported in patent publication US8551445B2, “Preparation and use of alkylating agents” (The Queen's Medical Center, priority 2003, dated 2013).

Legend:
[1] = FDA approved pre-clinical IND safety trial in humans; format: in vivo; settings: after about fifty trials
[2] = LAL pyrogen test (Charles River Labs Endosafe); settings: final purified solutions in physiologic saline
[3] = Culture of final purified solutions for microorganism growth (sterility); settings: 1 mL of final purified solution in physiologic saline; enriched thioglycollate at 37° C. and trypticase soy broth at 23° C.; 2 weeks
Protocol: The final purified solutions in physiologic saline [^18F]FCH and [^18F]FECh were cultured (1 mL) for microorganisms for growth in enriched thioglycollate at 37° C. and trypticase soy broth media at 23° C. […] A positive control standard is always included in the assay. [^18F]FCH is currently in an FDA approved pre-clinical IND safety trial in humans.

SMILES | adverse effects [1] | pyrogens (LAL) [2] | growth of microorganisms in culture [3]
C[N+](C)(C[18F])CCO [[^18F]FCH, [^18F]N,N-Dimethyl-N-fluoromethylethanolamine] | no adverse effects | pyrogen free | No growth
C[N+](C)(CCO)CC[18F] [[^18F]FECh, [^18F]N,N-Dimethyl-N-fluoroethylethanolamine] | – | pyrogen free | No growth
